# Laboratory results taken from patent publication US20250263457A1, “Pharmaceutical Composition for Preventing and Treating Liver Disease Comprising Novel Peptide” (Pusan National University Industry-University Cooperation …, priority 2024, published 2025).
# What was measured:
# [1] = system: alcohol-related liver disease mouse model; assay: Triglyceride accumulation in liver tissue of alcohol-related liver disease mouse model; type: in vivo, C57BL/6 male mice; details: 3.3 μg/kg i.p. every other day for three weeks
# Source text: (§1) To prepare alcohol-related liver disease mice, 8-week-old C57BL/6 male mice were fed with a Lieber DeCarli liquid diet (Dyets, 710260) containing 5% EtOH for 9 weeks, and then injected intraperitoneally with a vehicle (PBS) every other day along with feeding liquid diet for additional 3 weeks. As a control group for the EtOH diet, mice fed with a pair Lieber DeCarli liquid diet (Dyets, 710027) having the same total calories as the EtOH diet were used (FIG. 4A).
# Triglycerides in the liver tissue obtained by the method of Example 5.2 were measured using the following method.
# In addition, the accumulation of triglycerides in the liver tissue was confirmed using Oil red O staining.
# Specifically, the liver tissue extracted from the mice was embedded in OCT and frozen-stored at −80° C. The liver tissue embedded in OCT was cut into 6 μm-thick sections to produce tissue section slides and then fixed by treating 4% paraformaldehyde. The tissue section slides were washed with distilled water and treated with 100% propylene glycol ([…], Sigma-Aldrich), and triglycerides were stained with Oil Red O (Sigma-Aldrich). After staining, the section slides were washed with 60% PEG, and the nuclei were counterstained with hematoxylin. The liver tissue section slides produced as described above were observed under a microscope to confirm the accumulation of triglycerides in the liver tissue. […]
# [2] = system: alcohol-related liver disease mouse model; assay: Inflammatory response (CD68, F4/80 immunohistochemistry) and alcohol metabolism/apoptosis markers (Western blot) in liver tissue of mouse model; type: in vivo, C57BL/6 male mice; details: 3.3 μg/kg i.p. every other day for three weeks, vs vehicle
# Source text: as §1
# Specifically, the liver tissue extracted from the mouse was fixed by treating 10% neutral buffered formalin, and then embedded using paraffin. The liver tissue paraffin block was cut into 4 μm-thick sections to produce tissue section slides. After deparaffinization and hydration processes of the tissue section slides, 3% hydrogen peroxide was treated to block endogenous peroxidase. Then, the section slides were treated with 10 mM sodium citrate buffer (pH 6.0) and heated for 10 minutes or treated with 0.2% pepsin to induce antigen retrieval. To inhibit non-specific binding of antibodies, blocking (Dako, X9090) was performed, and then the primary antibodies were treated and reacted overnight at 4° C. At this time, the primary antibodies used were anti-CD68 antibody (Abcam, ab125212) and anti-F4/80 antibody (Abcam, ab6640). The section slides were washed with TBST and then treated with secondary antibodies and reacted. The secondary antibodies used were EnVision+ Single Reagents (HRP, Rabbit) (Dako, K4003) and Goat anti-rat IgG-heavy and light chain antibodies (HRP conjugated) (BETHYL, A110-105P). Thereafter, the section slides were washed with TBST and treated with 3,3′-diaminobenzidine (DAB) (Dako, K3466) to develop the color. After the color development, the tissues of the section slides were dehydrated, mounted, fixed, and then observed under a microscope.
# The alcohol-related liver disease mouse model established by the method of Example 5.1 was administered vehicle (PBS) or peptide YJ (3.3 μg/kg) intraperitoneally every other day for three weeks, and then blood was collected and liver tissue was extracted to confirm the liver disease treatment effect of peptide YJ.
# The degree of inflammatory response in the liver tissue extracted from the experimental mice of Example 5.3 was confirmed in the same manner as in Example 5.3.2.
# In addition, the expression of alcohol metabolism markers and apoptosis marker proteins was confirmed through Western blot. Western blot was performed in the same manner as in Example 2. At this time, the primary antibodies used were anti-CYP2E1 antibody ([…], ab125212), anti-4HNE antibody (Abcam, ab46545), anti-cleaved caspase-3 antibody (Cell Signaling Technology, 9661s), anti-caspase-3 antibody (Cell Signaling Technology, 9662s), and anti-GADPH antibody.
# CD44 [3] = assay: Western blot of CD44ICD in nuclear proteins of human pHSCs (CD44 cleavage); type: cell-based; details: 40 ng/ml, 24 hours, vs control (FIG. 3A)
# Protocol: Specifically, pHSCs were treated with peptide YJ (40 ng/ml) for 0, 6, 12, or 24 hours, and then nuclear proteins were isolated. Western blotting was performed on the isolated nuclear proteins to confirm the expression of CD44 and CD44ICD. The nuclear proteins were obtained by a nuclear protein fractionation method.
# At this time, the primary antibodies were used with anti-CD44 antibody (Abcam, ab157107), anti-CD44ICD antibody (Cosmo Bio, KAL-KO601), and anti-LAMIN B1 antibody (Abcam, ab16048), and the secondary antibody was used with Goat anti-Rabbit IgG antibody (HRP conjugate) (Enzo, ADI-SAB-300-J). In addition, human pHSCs treated with PBS were used as a control group. The CD44 and CD44ICD expression results were normalized to the expression level of LAMIN B1, which was an internal control group, and expressed as mean±SEM values obtained from the same experiment repeated three times.
# CD44 [4] = assay: Immunofluorescence of CD44ICD and α-SMA in human pHSCs; type: cell-based; details: 40 ng/ml, immunofluorescence (FIG. 3B)
# Protocol: The cleavage of CD44 and the expression of the activation marker of pHSCs by peptide YJ treatment were confirmed through immunofluorescence. At this time, human pHSCs treated with PBS were used as a control group.
# Specifically, human pHSCs (5×10^4 cells/ml) were seeded on coverslips and then cultured overnight. The cells were treated with peptide YJ at a concentration of 40 ng/ml and further cultured for 6, 12, and 24 hours, respectively. The cells were fixed and permeabilized by treating each cell with 4% paraformaldehyde and 0.01% Triton X-100. To inhibit non-specific binding of antibodies, blocking (Dako, X9090) was performed, and then the primary antibodies were treated and reacted overnight at 4° C. At this time, the primary antibodies used were anti-CD44ICD antibody (Cosmo Bio, KAL-KO601) and α-SMA (Sigma-Aldrich, A5228). Thereafter, the cells were washed with TBS, treated with a secondary antibody, and reacted at room temperature for 30 minutes. The secondary antibody used were Alexa Fluor 488-conjugated chicken anti-mouse IgG antibody (Invitrogen, A21200) or Alexa Fluor 568-conjugated goat anti-rabbit IgG antibody (Invitrogen, A10042). The cells were washed with TBS, and then treated with 4′,6-diamidino-2-phenylinole (DAPI, VECTASHIELD, H-1200-10) to perform nuclear staining. Finally, the coverslip was fixed on a slide glass using a mounting solution and then observed with a confocal microscope DMi8-S (Leica Microsystems) or CLSM21 (Carl Zeiss Inc.).
# [5] = EtOH diet group, Western blot (FIG. 6F)
substance,measurement,setting,value
peptide YJ: TSG-6 fragment: core domain RSGKYKLTYAEAKA plus C-terminal extension VCEFEGGHLATYKQLEAARKIGFHVCAAGWMAK (SEQ ID NO: 9); TSG-6 mimetic (RSGKYKLTYAEAKAVCEFEGGHLATYKQLEAARKIGFHVCAAGWMAK; peptide 4),amount of triglycerides in the liver tissue,"[1]; EtOH diet group, vs vehicle (FIG. 6D)",significantly reduced
same,size and number of lipid droplet in the liver tissue,[1]; H&E staining (FIG. 6E),significantly reduced
same,expression of CD68 in liver tissue,"[2]; EtOH diet group, IHC (FIG. 6E)",significantly reduced
same,expression of F4/80 in liver tissue,"[2]; EtOH diet group, IHC (FIG. 6E)",significantly reduced
same,expression of 4HNE in liver,[2]; [5],did not show a significant difference
same,expression of CYP2E1 in liver,[2]; [5],did not show a significant difference
same,expression of cleaved caspase-3 (apoptosis marker) in liver,[2]; Western blot (FIG. 6F),decreased
same,nuclear expression and accumulation of CD44ICD,CD44 [3],significantly reduced
same,expression of CD44ICD in the nucleus,CD44 [4]; 12 hours,decreased
same,expression of α-SMA,CD44 [4]; 12 hours,decreased
same,expression of CD44ICD in the nucleus,CD44 [4]; 24 hours,no expression of CD44ICD in the nucleus was observed
same,expression of α-SMA,CD44 [4]; 24 hours,significantly decreased
